Consider 55 compounds from patent publication US20070185176A1, “Heparanase inhibitors and uses thereof” (Insight Bioharmaceuticals Ltd., priority 2004, published 2007).

The assay has as its target T1, human recombinant heparanase (h-hpa) (Homo sapiens, UniProt Q9Y251).
T1 sequence (Q9Y251 158-543 limits assumed): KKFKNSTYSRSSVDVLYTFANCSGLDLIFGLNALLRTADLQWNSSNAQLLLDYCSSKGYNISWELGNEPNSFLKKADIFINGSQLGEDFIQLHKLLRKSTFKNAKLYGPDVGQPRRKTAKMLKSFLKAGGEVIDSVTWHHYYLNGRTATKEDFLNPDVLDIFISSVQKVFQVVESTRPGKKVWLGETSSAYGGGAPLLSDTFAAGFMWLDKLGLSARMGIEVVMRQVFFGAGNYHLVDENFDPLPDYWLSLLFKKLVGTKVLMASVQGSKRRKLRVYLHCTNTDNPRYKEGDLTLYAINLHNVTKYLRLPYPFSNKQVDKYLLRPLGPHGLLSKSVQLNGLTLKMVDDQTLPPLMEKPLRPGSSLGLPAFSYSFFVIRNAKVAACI
T1 sequence (Q9Y251 36-109 limits assumed): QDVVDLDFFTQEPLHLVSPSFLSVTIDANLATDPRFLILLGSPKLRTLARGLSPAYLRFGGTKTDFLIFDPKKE
As to the kind of experiment: In vitro dimethylmethylene blue (DMB) assay for heparanase activity.
Experimental: (a) In Vitro Dimethylmethylene Blue (DMB) Assay for Heparanase Activity
Heparin Sepharose CL-6B beads were added up to the top of the wells of a multiscreen column loader (Millipore). A 96-well multiscreen plate containing 0.65 μm hydrophilic, low protein binding, Durapore membrane (Millipore) was placed, upside down, on top of the multiscreen column loader. The column loader and the multiscreen plate were held together, turned over, and the beads were uniformly transferred from the column loader to the multiscreen plate (Millipore, MADVM 650). Double-distilled water (DDW) was then added to the beads, which were allowed to swell for one minute, and then washed (three times) with DDW under vacuum. Heparin concentration was estimated to be 10 μM/well.
To each well, phosphate-buffered saline (PBS) containing 1% bovine serum albumin (BSA; 70 μl/well) and DMB (32 mg of DMB were dissolved in 5 ml ethanol, diluted to 1 liter with formate buffer containing 4 g sodium formate and 4 ml formic acid; 120 μl/well) were added. Color was developed after 5 minutes, and the absorbance of the samples was determined using a microplate reader (Spectra Max, Molecular Devices) at 530 nm with 570 nm as reference. The absorbance correlated to heparanase activity. As a control, heparanase was added to the heparin Sepharose swollen beads in the multiscreen plate and the heparanase reaction products were filtered immediately thereafter and the absorbance of these control samples was subtracted from all other samples.
The cell extracts were centrifuged and resuspended in 20 mM phosphate citrate buffer, pH 5.4 containing 50 mM NaCl. The cells were lysed by three cycles of freezing and thawing. The cell lysates were centrifuged (10000×g for 5 min), supernatants were collected and then assayed for heparanase activity using the DMB assay.
The partially purified human recombinant heparanase or the crude cell extracts expressing either human or mouse recombinant heparanase were added for a 3-hour incubation and the reaction continued as described above. Absorbance of the developing color was measured as described above.
For `CCCCCCCCCCCCCCCCCC1=NN(c2ccc(Oc3ccccc3)c(S(=O)(=O)O)c2)C(=O)C1/N=N/c1ccccc1N(C)C` (stereo not shown) [Compound 5], the half-inhibitory concentration (IC50) was 0.22 µM. For `CCCCCCCCCCCCCCCCCC1=NN(c2ccc(Oc3ccccc3)c(S(=O)(=O)O)c2)C(=O)C1Br` (stereo not shown) [Compound 6] the value was 0.25 µM; for `CCCCCCCCCCCCCCCCCC1=NN(c2ccc(Oc3ccccc3)c(S(=O)(=O)O)c2)C(=O)C1/N=N/c1ccc(OC)cc1` (stereo not shown) [Compound 7], 0.24 µM; for `CCCCCCCCCCCCCCCCCC1=NN(c2ccc(Oc3ccccc3)c(S(=O)(=O)O)c2)C(=O)C1/N=N/c1cc(OC)ccc1OC` (stereo not shown) [Compound 8], 0.21 µM.

With `CCCCCCCCCCCCCCCCCC1=NN(c2ccc(Oc3ccccc3)c(S(=O)(=O)O)c2)C(=O)C1/N=N/c1cccc(C(=O)O)c1` (stereo not shown) [Compound 11], the IC50 amounted to 0.18 µM. For `CCCCCCCCCCCCCCCCCCCCC1=NN(c2ccc(S(=O)(=O)O)cc2N)C(=O)C1` [Compound 14] the value was 0.87 µM.

Consider `CCCCCCCCCCCCCCCCCC(=O)NC1=NN(c2ccc(Oc3ccccc3)c(S(=O)(=O)O)c2)C(=O)C1/N=N/c1ccc(O)c(C(=O)O)c1` (stereo not shown) [Compound 20], for which the half-inhibitory concentration (IC50) worked out at 0.19 µM.

`CCCCCCCCCCCCCCCCCC1=NN(c2ccc(Oc3ccccc3)c(S(=O)(=O)O)c2)C(=O)C1/N=N/c1ccc(O)c(C(=O)O)c1` (stereo not shown) [Compound 21]: the IC50 is 0.31 µM. For `CCCCCCCCCCCCCCCCCCOc1ccc(C(=O)CC(=O)Nc2ccc(Oc3cccc(C(=O)O)c3)c(C(=O)O)c2)cc1` [Compound 23] the value was 0.4 µM; for `CCCCCCCCCCCCCCCCCC1=NN(c2ccc(Oc3ccccc3)c(S(=O)(=O)O)c2)C(=O)C1/N=N/c1ccc(S(=O)(=O)O)cc1` (stereo not shown) [Compound 25], 0.27 µM; for `CCCCCCCCCCCCCCCCCC1=NN(c2ccc(Oc3ccccc3)c(S(=O)(=O)O)c2)C(=O)C1/N=N/c1ccc(NC(C)=O)cc1` (stereo not shown) [Compound 26], 0.13 µM. In the case of `CCCCCCCCCCCCCCCCCC(=O)Nc1ccc(C(=O)NC2=NN(c3ccc(Oc4ccccc4)c(S(=O)(=O)O)c3)C(=O)C2/N=N/c2ccc(NS(=O)(=O)c3ccc(C)cc3)cc2)cc1` (stereo not shown) [Compound 27] it was 0.27 µM. In the case of `CCCCCCCCCCCCCCCCCCN(C)c1ccc(S(=O)(=O)O)cc1NC(=O)c1cc(/N=N/c2cccc(NS(=O)(=O)c3ccccc3)c2)c2ccccc2c1O` [Compound 33] it was 0.21 µM. As to `CCCCCCCCCCCCCCCCCCN(C)c1ccc(S(=O)(=O)O)cc1NC(=O)c1cc(/N=N/c2cc(-c3ccccc3)ccc2O)c2ccccc2c1O` [Compound 34], the IC50 came out at 0.31 µM.

As for `CCCCCCCCCCCCCCCCCC1=Nn2c(nc3cc(S(=O)(=O)O)ccc32)C1S(=O)(=O)O` (stereo not shown) [Compound 35], the IC50 was 1.34 µM. With `CCCCCCCCCCCCCCCCCC1=Nn2c(nc3cc(C(=O)O)ccc32)C1S(=O)(=O)O` (stereo not shown) [Compound 36], the IC50 was 1.42 µM. For `CCCCCCCCCCCCCCCCCC1=NN(c2ccc(-c3nc4cc(S(=O)(=O)O)ccc4s3)cc2)C(=O)/C1=N\c1ccc(N(CC)CC)cc1` [Compound 37] the value was 1.5 µM. For `CCCCCCCCCCCCCCCCCC1=NN(c2nc3ccc(S(=O)(=O)O)cc3[nH]2)C(=O)/C1=N\c1ccc(N(CC)CC)cc1` [Compound 38] the value was 1.45 µM; for `CCCCCCCCCCCCCCCCCC1=NN(c2nc3cc(C(=O)O)cc(C(=O)O)c3s2)C(=O)C1` [Compound 39], 2.8 µM. As for `CCCCCCCCCCCCCCCCCC(=O)Nc1ccc(NC(=O)c2cc(/N=N/c3cc(C(=O)O)c(O)cc3O)c3ccccc3c2O)cc1S(=O)(=O)O` [Compound 40], the IC50 is 0.23 µM. For `CCCCCCCCCCCCCCCCCCN(C)c1ccc(S(=O)(=O)O)cc1NC(=O)c1cc(S(=O)(=O)O)c2ccccc2c1O` [Compound 41] the value was 0.49 µM; for `CCCCCCCCCCCCCCCCCCn1c(-c2ccc3ccccc3c2O)nc2cc(S(=O)(=O)O)ccc21` [Compound 42], 0.48 µM. For `CCCCCCCCCCCCCCCCCCOc1ccc(C(=O)CC(=O)Nc2ccc(Sc3ccccc3C(=O)O)c(C(=O)O)c2)cc1` [Compound 44] the value was 0.21 µM; for `CCCCCCCCCCCCCCCCCCN(C)c1ccc(S(=O)(=O)O)cc1NC(=O)c1cc(/N=N/c2ccc(NS(=O)(=O)c3ccc(C)cc3)cc2)c2ccccc2c1O` [Compound 45], 0.5 µM; for `CCCCCCCCCCCCCCCCCCOc1ccc(C(=O)O)cc1NC(=O)c1cc(Sc2nnnn2-c2ccccc2)c2ccccc2c1O` [Compound 46], 7.7 µM. For `CCCCCCCCCCCCCCCCCCN(C)c1ccc(S(=O)(=O)O)cc1NC(=O)c1cc(/N=N/c2cccc(NS(C)(=O)=O)c2)c2ccccc2c1O` [Compound 47] the value was 0.25 µM; for `CCCCCCCCCCCCCCCCCCOc1ccc(S(=O)(=O)N/N=C2\N(CC)c3ccccc3C2(C)C)cc1C(=O)O` [Compound 48], 0.95 µM; for `CCCCCCCCCCCCCCCCCCOc1ccc(S(=O)(=O)O)cc1NC(=O)c1cc(/N=N/c2ccccc2C(=O)O)c2ccccc2c1O` [Compound 49], 2.7 µM. Turning to `CCCCCCCCCCCCCCCCCCN(C)c1ccc(C(=O)O)cc1NC(=O)c1cc(/N=N/c2cc(C(=O)O)ccc2O)c2ccccc2c1O` [Compound 50], the concentration for half-maximal inhibition (IC50) was 4.5 µM. For `CCCCCCCCCCCCCCCCCCC(=O)CC(=O)Nc1ccc(Oc2ccc(C(=O)O)cc2)c(C(=O)O)c1` [Compound 51] the value was 3 µM; for `CCCCCCCCCCCCCCCCCCN(C)c1ccc(S(=O)(=O)O)cc1NC(=O)c1cc(/N=N/c2cc(NS(=O)(=O)c3ccc(C)cc3)ccc2Cl)c2ccccc2c1O` [Compound 52], 0.74 µM; for `CCCCCCCCCCCCCCCCCCN(C)c1ccc(S(=O)(=O)O)cc1NC(=O)c1cc(/N=N/c2c(Cl)cccc2Cl)c2ccccc2c1O` [Compound 53], 0.4 µM. For `CCCCCCCCCCCCCCCCS(=O)(=O)c1ccc(N2N=C(NC(=O)c3ccccc3S(=O)(=O)O)C(/N=N\c3ccc(O)cc3Cl)C2=O)cc1` (stereo not shown) [Compound 54] the value was 0.2 µM; for `CCCCCCCCCCCCCCCCCCN(C)c1ccc(S(=O)(=O)O)cc1NC(=O)c1cc(/N=N/c2cc(OC)c(O)cc2Cl)c2ccccc2c1O` [Compound 55], 0.43 µM. For the compound `C=CCCCCCCCCCCCCCCC(CC(=O)NC1=NN(c2c(Cl)cc(Cl)cc2Cl)C(=O)C1)C(=O)O` (stereo not shown) [Compound 56], the IC50 was 6.8 µM. For `CCCCCCCCCCCCCCCCn1c(/N=C/c2c(O)ccc3cc([N+](=O)[O-])ccc23)nc2ccccc21` [Compound 57] the value was 7.8 µM. In the case of `CCCCCCCCCCCCCCCCn1c(/N=C/c2cc(Cl)cc(Br)c2O)nc2ccccc21` [Compound 58] it was 3 µM. In the case of `CCCCCCCCCCCCCCCCCCOc1ccc(S(=O)(=O)Nc2cccc(S(=O)(=O)N/N=C3\N(C)c4ccccc4C3(C)C)c2)cc1C(=O)O` [Compound 59] it was 0.49 µM; in that of `CCCCCCCCCCCCCCCCCC(=O)Nc1ccc(C(=O)CC(=O)Nc2cc(C(=O)O)ccc2Oc2cc(C(=O)O)cc(C(=O)O)c2)cc1` [Compound 60], 0.44 µM.

Take `CCCCCCCCCCCCCCCCCC(=O)Nc1cc(C(=O)O)ccc1Oc1cc(C(=O)O)cc(C(=O)O)c1` [Compound 61]: the concentration for half-maximal inhibition (IC50) came out at 2 µM.

For `CCCCCCCCCCCCCCCCCCN(C)c1ccc(C(=O)O)cc1NC(=O)c1cc(/N=N/c2cc(C(=O)OC)ccc2O)c2ccccc2c1O` [Compound 62], the IC50 is 11.6 µM. For `CCCCCCCCCCCCCCCCCCNc1ccc(C(=O)O)cc1NC(=O)c1cc(/N=N/c2ccc(NS(=O)(=O)c3ccc(C)cc3)cc2C)c2ccccc2c1O` [Compound 63] the value was 16.8 µM; for `CCCCCCCCCCCCCCCCCCOc1ccccc1C(=O)CC(=O)Nc1cc(NS(=O)(=O)c2cc(C(=O)O)cc(C(=O)O)c2)ccc1Cl` [Compound 64], 0.29 µM. In the case of `CCCCCCCCCCCCCCCCn1c(=N)n(CC(O)c2ccc(OC)c(OC)c2)c2ccccc21` (stereo not shown) [Compound 65], the concentration for half-maximal inhibition (IC50) is 4.8 µM. As to `CCCCCCCCCCCCCCCCCCN1/C(=C/C=C/c2oc3ccccc3[n+]2CCCCCCCCCCCCCCCCCC)Oc2ccccc21` [Compound 66], the IC50 stood at 1 µM. For `CCCCCCCCCCCCCCCCCCN1/C(=C/C=C/c2sc3ccccc3[n+]2CCCCCCCCCCCCCCCCCC)Sc2ccccc21` [Compound 67] the value was 1.5 µM. For `CCCCCCCCCCNCC(O)Cn1c2ccc(Cl)cc2c2cc(Cl)ccc21` (stereo not shown) [Compound 68] the value was 6.8 µM; for `CCCCCCCCCCCCCCCCCC(=O)NC1=NN(c2ccc(Oc3ccccc3)c(S(=O)(=O)O)c2)C(=O)C1/N=N/c1ccc(O)cc1Cl` (stereo not shown) [Compound 69], 0.18 µM.

As for `CCCCCCCCCCCCCCCCCCNC(=O)Nc1ccc(S(=O)(=O)O)cc1` [Compound 70], the IC50 was determined as 7 µM.

Regarding `CCCCCCCCCCCC(=O)NC1=NN(c2ccc(Oc3ccccc3)c(S(=O)(=O)O)c2)C(=O)C1` [Compound 71], the 50% inhibitory concentration (IC50) turned out to be 2.65 µM.

With `CCCCCCCCCCCCCCCCCCNC(=O)c1cc(S(=O)(=O)O)c2ccccc2c1O` [Compound 72], the half-maximal inhibitory concentration (IC50) was 0.32 µM. Take `CCCCCCCCCCCCCCCCCCn1c(C)nc2cc(S(=O)(=O)O)ccc21` [Compound 73]: the half-maximal inhibitory concentration (IC50) is 1.4 µM. Consider `CCCCCCCCCCCCCCCC(=O)NC(CN1CCOCC1)C(O)c1ccccc1` (stereo not shown) [Compound 74], for which the IC50 was 19 µM.

In the case of `CCCCCCCCCCCCCCCC1=CN(c2ccc(S(=O)(=O)O)cc2)C(=O)C1` [Compound 75], the IC50 is 1.6 µM. With `CCCCCCCCCCCCCCCCOc1ccc(/C(=N\NS(=O)(=O)c2cc(C(=O)O)cc(C(=O)O)c2)N2CCCCC2)cc1OC` [Compound 76], the concentration for half-maximal inhibition (IC50) was determined as 3 µM.
